36 compounds from ChEMBL document CHEMBL3351830, “Discovery and structure-activity relationships of phenyl benzenesulfonylhydrazides as novel indoleamine 2,3-dioxygenase inhibitors” (Bioorg Med Chem Lett, 2014) can be followed below.

Bounds are passed on as bounds.

For test [1], the target named is T1, Indoleamine 2,3-dioxygenase 1 (Homo sapiens, UniProt P14902). Nature of the test: Inhibition of human recombinant IDO expressed in Escherichia coli using N-formylkynurenine as substrate incubated for 1 hr prior to NaOH addition measured after 4 hrs by spectrophotometry.
Test [2] addresses T1, Indoleamine 2,3-dioxygenase 1. As to the kind of experiment: Inhibition of IDO in human HeLa cells after 24 hrs by spectrophotometry. It counts as cell-based.

T1 sequence (P14902 whole entry): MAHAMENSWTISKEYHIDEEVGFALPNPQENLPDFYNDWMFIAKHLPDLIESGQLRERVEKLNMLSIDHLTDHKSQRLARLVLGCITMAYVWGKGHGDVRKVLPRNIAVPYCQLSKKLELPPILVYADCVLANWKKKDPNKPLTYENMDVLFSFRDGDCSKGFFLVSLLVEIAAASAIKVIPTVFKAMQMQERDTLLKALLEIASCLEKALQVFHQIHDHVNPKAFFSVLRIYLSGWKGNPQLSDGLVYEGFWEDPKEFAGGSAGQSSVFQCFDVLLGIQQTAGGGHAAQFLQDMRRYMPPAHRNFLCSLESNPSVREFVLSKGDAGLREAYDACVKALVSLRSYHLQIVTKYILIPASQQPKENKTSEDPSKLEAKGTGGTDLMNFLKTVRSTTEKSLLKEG

Usually IC50 stands for the point on the concentration scale where inhibition reaches its midpoint. In general, EC50 refers to the concentration needed to bring the measured effect to its halfway point. High values mean a less potent agent, low ones a more potent agent. For the compound `CC(=O)Nc1ccc(S(=O)(=O)NNc2cccc(C)c2)cc1`, in test [1], the IC50 is 49 nM. Moreover, the EC50 in test [2] was 241 nM. Take `O=S(=O)(CCc1ccccc1)NNc1ccccc1`: the IC50 in test [1] stood at 167 nM. In test [2], this compound came in with an EC50 of over 10000 nM. As for `Cc1cccc(NNS(=O)(=O)c2ccc(C(=O)NCC(=O)O)cc2)c1`, the IC50 in test [1] amounted to 80 nM. The compound further returned an EC50 in test [2] of 271 nM. `Cc1cccc(NNS(=O)(=O)c2ccc(S(C)(=O)=O)cc2)c1`: in test [1], the IC50 amounted to 43 nM. In addition, the EC50 in test [2] was found to be 7850 nM. For `Cc1cccc(NNS(=O)(=O)c2ccc(C#N)cc2)c1`, the IC50 in test [1] came out at 59 nM. Moreover, the EC50 in test [2] worked out at 3400 nM. `Cc1cccc(NNS(=O)(=O)c2ccc(Oc3ccc(C(F)(F)F)cn3)cc2)c1`: the IC50 in test [1] came to 59 nM. The EC50 in test [2] was found to be 296 nM.

`CC(=O)Nc1ccc(S(=O)(=O)NNc2ccccc2)cc1`: the IC50 in test [1] was found to be 71 nM. For the same compound, the EC50 in test [2] is over 10000 nM. On the same counts, the results for `CC(=O)Nc1ccc(S(=O)(=O)NNc2ccc(C)cc2)cc1` are 51 nM and 1170 nM. For `COc1ccc(NNS(=O)(=O)c2ccc(NC(C)=O)cc2)cc1`, in test [1], the IC50 is 254 nM. Further, the EC50 in test [2] was over 10000 nM. With `CC(=O)Nc1ccc(S(=O)(=O)NNc2ccc(C#N)cc2)cc1`, the IC50 in test [1] worked out at 5670 nM. In addition, the EC50 in test [2] worked out at 1390 nM. Turning to `CC(=O)Nc1ccc(S(=O)(=O)NNc2ccc(S(N)(=O)=O)cc2)cc1`, the IC50 in test [1] stood at 2480 nM. Also, the EC50 in test [2] came out at 3120 nM. Take `CC(=O)Nc1ccc(S(=O)(=O)NNc2ccc(C(F)(F)F)cc2)cc1`: in test [1], the IC50 came out at 1610 nM. Also, the EC50 in test [2] is 181 nM. As for `CC(=O)Nc1ccc(S(=O)(=O)NNc2ccc(F)cc2)cc1`, the IC50 in test [1] turned out to be 79 nM. This compound also gave an EC50 in test [2] of 609 nM. `CC(=O)Nc1ccc(S(=O)(=O)NNc2ccc(Cl)cc2)cc1`: in test [1], the concentration for half-maximal inhibition (IC50) was 155 nM. Besides, a half-maximal response in test [2] (EC50) required 142 nM. `CC(=O)Nc1ccc(S(=O)(=O)NNc2ccc(Br)cc2)cc1`: the IC50 in test [1] turned out to be 130 nM. The EC50 in test [2] came out at 85 nM. For `CC(=O)Nc1ccc(S(=O)(=O)NNc2cccc(F)c2)cc1`, the IC50 in test [1] amounted to 122 nM. The EC50 in test [2] was over 10000 nM. As for `CC(=O)Nc1ccc(S(=O)(=O)NNc2cccc(Br)c2)cc1`, the IC50 in test [1] came out at 255 nM. This compound also returned an EC50 in test [2] of 7560 nM.

As for `CC(=O)Nc1ccc(S(=O)(=O)NNc2ccc(F)c(Br)c2)cc1`, in test [1], the IC50 is 128 nM. Moreover, the EC50 in test [2] stood at 2490 nM. On the same counts, the results for `CC(=O)Nc1ccc(S(=O)(=O)NNc2ccc(F)c(Cl)c2)cc1` are 110 nM and 2590 nM. Regarding `CC(=O)Nc1ccc(S(=O)(=O)NNc2ccc(Br)c(F)c2)cc1`, in test [1], the IC50 turned out to be 205 nM. In test [2], this compound had an EC50 of 187 nM.

Regarding `CC(=O)Nc1ccc(S(=O)(=O)NNc2ccc(Br)c(C)c2)cc1`, the IC50 in test [1] is 58 nM. Also, in test [2], the EC50 was 130 nM.

In the case of `CC(=O)Nc1ccc(S(=O)(=O)NNc2ccc(Cl)c(F)c2)cc1`, the IC50 in test [1] is 194 nM. The compound further yielded an EC50 in test [2] of 84 nM. On to `CC(=O)Nc1ccc(S(=O)(=O)NNc2cc(F)cc(F)c2)cc1`, for which the IC50 in test [1] came out at 1750 nM. This compound returned an EC50 in test [2] of 2230 nM. Consider `CC(=O)Nc1ccc(S(=O)(=O)NNc2ccc(F)cc2F)cc1`, for which, in test [1], the IC50 was found to be 608 nM. Moreover, the EC50 in test [2] is over 10000 nM. `CC(=O)Nc1ccc(S(=O)(=O)NNc2ccc(Cl)c(Cl)c2)cc1`: the IC50 in test [1] came to 247 nM. Moreover, in test [2], the EC50 amounted to 350 nM. On the same counts, the results for `CC(=O)Nc1ccc(S(=O)(=O)NNc2cc(Cl)cc(Cl)c2)cc1` are 352 nM and 508 nM. In the case of `O=S(=O)(NNc1ccc(Br)cc1)c1ccccc1`, the IC50 in test [1] stood at 172 nM. Also, the EC50 in test [2] is 128 nM. On to `O=S(=O)(NNc1ccc(Br)cc1)c1ccc(Br)cc1`, for which, in test [1], the IC50 came out at 85 nM. The compound also yielded an EC50 in test [2] of 374 nM. `COc1ccc(S(=O)(=O)NNc2ccc(Br)cc2)cc1`: the IC50 in test [1] is 1430 nM. In addition, the EC50 in test [2] turned out to be 640 nM. Turning to `N#Cc1ccc(S(=O)(=O)NNc2ccc(Br)cc2)cc1`, the IC50 in test [1] came to 176 nM. For the same compound, it took 134 nM to reach a half-maximal effect in test [2] (EC50). In the case of `COC(=O)CCc1ccc(S(=O)(=O)NNc2ccc(Br)cc2)cc1`, in test [1], the IC50 is 121 nM. Also, a half-maximal effect in test [2] (EC50) was put at 465 nM. For `CCCC(=O)Nc1ccc(S(=O)(=O)NNc2ccc(Br)cc2)cc1`, in test [1], the IC50 was found to be 132 nM. The compound further registered an EC50 in test [2] of 187 nM.

As for `O=C(O)CCc1ccc(S(=O)(=O)NNc2ccc(Br)cc2)cc1`, the IC50 in test [1] is 141 nM. Besides, the EC50 in test [2] is 183 nM. Take `O=C(O)COc1ccc(S(=O)(=O)NNc2ccc(Br)cc2)cc1`: the IC50 in test [1] was found to be 125 nM. Further, the EC50 in test [2] is 152 nM. For `O=C(O)c1ccc(S(=O)(=O)NNc2ccc(Br)cc2)cc1`, the IC50 in test [1] came to 61 nM. The EC50 in test [2] was determined as 172 nM. As for `CC(=O)Nc1ccc(S(=O)(=O)NN(C)c2ccc(Br)cc2)cc1`, the IC50 in test [1] amounted to 4050 nM.
